We go through 22 compounds from ChEMBL document CHEMBL3352746, “Synthesis and anticancer activity of quinopimaric and maleopimaric acids’ derivatives” (Bioorg Med Chem, 2014).

What all share (assay type): functional
Test [1] is described as follows: (§1) Cytotoxicity against human NCI60 cells assessed as cell growth at 10 uM. Particulars: read-out: Activity.
Test [2] is described as follows: Cytotoxicity against human HL60 cells assessed as cell growth at 10 uM. Particulars: HL-60, read-out: Activity.
The subject of the next test is SR. The test can be described thus: Cytotoxicity against human SR cells assessed as cell growth at 10 uM. Particulars: read-out: Activity.
The next test relates to NCI60. Described as §1.
A further test deals with TK-10. The test can be described thus: Cytotoxicity against human TK10 cells assessed as cell growth at 10 uM. Particulars: read-out: Activity.
The next test has as its system RPMI-8226. Put plainly: Cytotoxicity against human RPMI8226 cells assessed as cell growth at 10 uM. Particulars: read-out: Activity.
A further test concerns HCC 2998. Put plainly: Cytotoxicity against human HCC2998 cells assessed as cell growth at 10 uM. Particulars: read-out: Activity.
For another test, the system named is T47D. The test can be described thus: Cytotoxicity against human T47D cells assessed as cell growth at 10 uM. Particulars: read-out: Activity.

Active and inactive are the calls of the source. No cut-off for these calls is given here.

As to `COC(=O)[C@]1(C)CCC[C@]2(C)[C@H]3C[C@@H]4[C@H]5[C@@H]6CCC(=O)[C@H]5[C@@]3(CC[C@H]21)CC4(C(C)C)O6`, the growth at 10 µM in test [1] is more than 32%. Same read-out and setting: the figure for `COC(=O)[C@]1(C)CCC[C@]2(C)[C@H]3C[C@@H]4[C@H]5[C@@H]6CC/C(=N\O)[C@H]5[C@@]3(CC[C@H]21)CC4(C(C)C)O6` is more than 32%. Still for that read-out and setting: the result for `COC(=O)[C@]1(C)CCC[C@]2(C)[C@H]3C[C@H]4C(C(C)C)=C[C@]3(CC[C@H]21)[C@@H]1NC(=O)CCC2(OCCO2)[C@@H]14` reads more than 32%; that for `COC(=O)[C@]1(C)CCC[C@]2(C)[C@H]3C[C@@H]4[C@H]5[C@@H]6Cc7c([nH]c8ccccc78)[C@H]5[C@@]3(CC[C@H]21)CC4(C(C)C)O6`, more than 32%.

Regarding `COC(=O)[C@]1(C)CCC[C@]2(C)[C@H]3C[C@H]4C(C(C)C)=C[C@]3(CC[C@H]21)[C@@H]1c2[nH]c3ccccc3c2CC(=O)[C@@H]14`, the growth at 10 µM in test [1] was more than 32%.

In the case of `COC(=O)CCNC(=O)[C@]1(C)CCC[C@]2(C)[C@H]3C[C@H]4C(C(C)C)=C[C@]3(CC[C@H]21)[C@@H]1C(=O)CCC(=O)[C@@H]14`, in test [1], the growth at 10 µM was more than 32%. On the same count and under the same terms, the result for `COC(=O)CCNC(=O)[C@]1(C)CCC[C@]2(C)[C@H]3C[C@H]4C(C(C)C)=C[C@]3(CC[C@H]21)[C@@H]1C(=O)CC[C@H](O)[C@@H]14` reads more than 32%.

Take `COC(=O)[C@]1(C)CCC[C@]2(C)[C@H]3C[C@H]4C(C(C)C)=C[C@]3(CC[C@H]21)[C@@H]1C(=O)CCC2(OCCO2)[C@@H]14`: the growth at 10 µM in test [2] amounted to 28.7%; in the test with SR, 31.2%. For the same compound, the outcome with NCI60 was Active. Turning to `COC(=O)[C@]1(C)CCC[C@]2(C)[C@H]3C[C@H]4C5C[C@]3(CC[C@H]21)[C@@H]1/C(=N/O)CC[C@H](OC5(C)C)[C@@H]14`, the growth at 10 µM in test [1] was more than 32%. On the same count and under the same terms, the result for `COC(=O)[C@]1(C)CCC[C@]2(C)[C@H]3C[C@@H]4[C@H]5[C@@H]6Cc7[nH]c(=S)[nH]c7[C@H]5[C@@]3(CC[C@H]21)CC4(C(C)C)O6` reads more than 32%. The same measure, in the same setting: the result for `COC(=O)[C@]1(C)CCC[C@]2(C)[C@H]3C[C@H]4C(C(C)C)=C[C@]3(CC[C@H]21)[C@@H]1c2[nH]c3ccccc3c2-c2c([nH]c3ccccc23)[C@@H]14` reads more than 32%; that for `COC(=O)[C@]1(C)CCC[C@]2(C)[C@H]3C[C@@H]4[C@H]5[C@@H]6Cc7cnn(-c8ccccc8)c7[C@H]5[C@@]3(CC[C@H]21)CC4(C(C)C)O6`, more than 32%; that for `COC(=O)C(CCSC)NC(=O)[C@]1(C)CCC[C@]2(C)[C@H]3C[C@H]4C(C(C)C)=C[C@]3(CC[C@H]21)[C@@H]1C(=O)CC[C@H](OC(=O)CCC(=O)O)[C@@H]14` (stereo not given in full), more than 32%.

Regarding `COC(=O)[C@]1(C)CCC[C@]2(C)[C@H]3C[C@H]4C(C(C)C)=C[C@]3(CC[C@H]21)[C@@H]1/C(=N/O)CC[C@H](O)[C@@H]14`, the growth at 10 µM in test [1] is more than 32%. As for `COC(=O)[C@]1(C)CCC[C@@]2(C)[C@H]1CC[C@]13C=C(C(C)C)[C@H](C[C@H]21)C1=C3C(=O)C=CC1=O`, in the test on SR, the growth at 10 µM came out at 15.6%. The outcome with NCI60 was Active.

As to `CC(C)C1=C[C@@]23CC[C@@H]4[C@](C)(CCC[C@@]4(C)C(=O)O)[C@H]2C[C@@H]1[C@H]1C(=O)CCC(=O)[C@H]13`, the growth at 10 µM with TK-10 worked out at 28.4%. Moreover, the outcome in the test on NCI60 was Active. With `CC(C)C1=C[C@]23CC[C@@H]4[C@](C)(CCC[C@@]4(C)C(=O)O)[C@H]2C[C@H]1[C@H]1C(=O)OC(=O)[C@H]13`, the growth at 10 µM in test [1] is more than 32%. On the same count and under the same terms, the result for `COC(=O)[C@]1(C)CCC[C@]2(C)[C@H]3C[C@H]4C5C[C@]3(CC[C@H]21)[C@@H]1C(=O)CC[C@H](OC5(C)C)[C@@H]14` reads more than 32%; that for `COC(=O)[C@]1(C)CCC[C@]2(C)[C@H]3C[C@H]4C(C(C)C)=C[C@]3(CC[C@H]21)[C@@H]1NC(=O)CC[C@H](O)[C@@H]14`, more than 32%.

For `COC(=O)[C@]1(C)CCC[C@]2(C)[C@H]3C[C@@H]4[C@H]5[C@@H]6Cc7cn[nH]c7[C@H]5[C@@]3(CC[C@H]21)CC4(C(C)C)O6`, in test [1], the growth at 10 µM was more than 32%.

`COC(=O)[C@]1(C)CCC[C@]2(C)[C@H]3C[C@H]4C(C(C)C)=C[C@]3(CC[C@H]21)[C@@H]1C(=O)[C@H]2O[C@H]2C(=O)[C@@H]14`: the growth at 10 µM with SR stood at 8.07%. Besides, in the test on NCI60, the result was Active.

Consider `COC(=O)[C@]1(C)CCC[C@]2(C)[C@H]3C[C@H]4C(C(C)C)=C[C@]3(CC[C@H]21)[C@@H]1/C(=N/O)CCC2(OCCO2)[C@@H]14`, for which the growth at 10 µM with RPMI-8226 was 3.94%; in the test with HCC 2998 it was -9.91%; with T47D, 30.7%. Besides, the outcome in the test with NCI60 was Active.
